# Results reported in US20240262727A1, “METHOD FOR IMPROVING BIOLOGICAL NITROGEN REMOVAL EFFECT OF LOW-TEMPERATURE SEWAGE” (Sichuan University, priority 2023, published 2024).
# Tested on: activated sludge
# Assay: Activated sludge SBR reactor, biological nitrogen removal with added AHLs signal molecule
# Settings: remaining steps as Example 1 (10° C.)
Compound,ammonia-nitrogen removal efficiency (10 μg/L after addition) [%],ammonia-nitrogen removal efficiency (100 μg/L after addition) [%]
"CCCCCCCC(=O)N[C@H]1CCOC1=O [C8-HSL, N-octanoyl-L-homoserine lactone]",88.37,94.54
"CCCCCCCCCCCC(=O)N[C@H]1CCOC1=O [C12-HSL, N-dodecanoyl-L-homoserine lactone]",90.79,80.95
